Paper PMC4551797 (PLoS ONE, 2015)

Experiments:
human TGR5 receptor = target: T1, human TGR5 receptor (Homo sapiens, UniProt Q8TDU6); test: cAMP production in NCI-H716 enteroendocrine cells (endogenous TGR5); format: cell-based
T1 construct: in cells with endogenous levels of receptor; host or cells: NCI-H716 (human enteroendocrine)
T1 sequence (Q8TDU6 1-330): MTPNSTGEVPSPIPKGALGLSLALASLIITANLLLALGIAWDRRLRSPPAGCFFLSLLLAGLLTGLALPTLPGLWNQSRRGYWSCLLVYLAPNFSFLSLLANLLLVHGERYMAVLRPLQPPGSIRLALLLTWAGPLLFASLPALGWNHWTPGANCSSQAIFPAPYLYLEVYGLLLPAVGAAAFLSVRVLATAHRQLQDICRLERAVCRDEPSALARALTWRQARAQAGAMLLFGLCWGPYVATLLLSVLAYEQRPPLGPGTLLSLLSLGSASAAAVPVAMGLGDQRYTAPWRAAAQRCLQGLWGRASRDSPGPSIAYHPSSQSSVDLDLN
Description: HEK-293 cells were obtained from ATCC and a clonal HEK-293 line overexpressing mouse TGR5 was prepared. Both were maintained in Dulbecco’s modified Eagle’s medium (DMEM) containing 10% fetal bovine serum (FBS) and penicillin /streptomycin. Mouse STC-1 cells were obtained from ATCC under agreement with the Cold Spring Harbor Laboratories and maintained in DMEM containing 10% FBS and penicillin /streptomycin. NCI-H716 cells were obtained from ATCC and were maintained in RPMI-1640 with 10% FBS. NCI-H716 cells were cultured in 96 well plate coated with Matrigel (BD). After 72 hours, cAMP production stimulated with TGR5 agonists was measured using HTRF cAMP assay kit (CISBIO). The level of cAMP in suspensions of STC-1 cells stimulated with increasing concentrations of TGR5 agonists was also determined. […] The production of GLP-1 was determined using a GLP-1 Assay (7–36) amide kit (Mesoscale Discovery) following the manufacturer’s instructions. […]
Compound 18 is a novel small molecule agonist of TGR5 developed by Eli Lilly and Company (MW = 508.62, Fig 2A). […] In order to determine potency of compound 18 for the mouse and human TGR5 receptor in cells with endogenous levels of receptor, we measured compound 18-stimulated cAMP production and GLP-1 secretion in both mouse (STC-1) and human (NCI-H716) enteroendocrine cell lines, that we have shown to express TGR5 natively (Fig 1). […]

C57BL/6 mice = test: Oral glucose tolerance test, glucose only; conditions: oral 1-100 mg/kg tested, glucose 3 g/kg 15 min after compound
Description: For measurement of glucose only, overnight-fasted C57BL/6 mice in a normal light cycle were orally dosed with vehicle or compound, followed by an oral bolus of 3 g/kg glucose at 15 minutes post compound. At 0, 20, 40, 60, and 120 minutes post glucose dose, blood glucose was assessed via glucometers. Resulting raw data was used to generate AUCs. […] At 0, 15, 30, 60, and 120 minutes post glucose dose, blood glucose was assessed via glucometers. Resulting raw data was used to generate AUCs.

DIO C57BL/6 mice = test: Oral glucose tolerance test in diet-induced obese mice, acute or after 2-week dosing; format: in vivo, mouse; conditions: 2 g/kg glucose
Description: For measurement of glucose only, overnight-fasted C57BL/6 mice in a normal light cycle were orally dosed with vehicle or compound, followed by an oral bolus of 3 g/kg glucose at 15 minutes post compound. At 0, 20, 40, 60, and 120 minutes post glucose dose, blood glucose was assessed via glucometers. Resulting raw data was used to generate AUCs. For measurement of hormones and glucose, overnight-fasted C57BL/6 mice acclimated for two weeks to a reverse light cycle were orally dosed with vehicle or compound, followed by an oral bolus of 3 g/kg glucose at 15 minutes post compound. At 0, 2, 5, 10, 20, 40, and 60 minutes post glucose dose, blood glucose was assessed via glucometers, followed immediately by collection of plasma for active GLP-1 (Mesoscale Discovery), insulin (Mesoscale Discovery), and total PYY. […] At 0, 15, 30, 60, and 120 minutes post glucose dose, blood glucose was assessed via glucometers. […]
While compound 18 led to significant glucose lowering in an OGTT studies when dosed acutely, it remained unclear if the mechanism of TGR5-stimulated GLP-1 secretion desensitizes over time. […] For the chronic study, DIO mice were orally dosed with vehicle or 60 mg/kg compound 18 once a day for two weeks; body weights and food intake were measured during the treatment period. […]

`CC(=O)N1CCC(C(C)N(C(=O)COc2cccc3sc4nc(C)cn4c23)c2ccc(F)cc2)CC1` (stereo not shown) [compound 18] was tested, and the EC50 (human TGR5 receptor) was 3.1 µM, the “doses that reduce glucose excursions in OGTT” value (C57BL/6 mice) was at least 30 mg/kg and the “reduction in the glucose excursion (OGTT)” value (DIO C57BL/6 mice; acute, single 60 mg/kg oral dose) was 33 ± 5%. For the same compound, the “reduction in the glucose excursion (OGTT)” value (DIO C57BL/6 mice; chronic, 60 mg/kg oral once a day for two weeks) was 27 ± 6%.
